Measured values: the CheMixHub viscosity set
± gives the uncertainty stated by the source.

Assay: xn = mol fraction of the nth substance listed

C=Cn1cc[n+](CC(N)=O)c1.O=S(=O)([N-]S(=O)(=O)C(F)(F)F)C(F)(F)F + CC#N
viscosity [mPa·s], 100 kPa
Details	298.15 K	303.15 K	308.15 K	313.15 K	318.15 K	323.15 K
x1 = 0.1	–	9.97 ± 2	9.16 ± 1.9	8.17 ± 1.6	7.74 ± 1.6	7.02 ± 1.4
x1 = 0.201	75.29 ± 15	68.64 ± 14	59.58 ± 12	50.56 ± 10	–	–
x1 = 0.3026	–	246.5 ± 51	–	–	–	–
x1 = 0.4011	805.9 ± 180	683.3 ± 150	549.2 ± 120	–	–	–

CCCCOC(=O)C(C)O (stereo unspecified) + CCCO
101 kPa, x1 = 0.8998
Details	viscosity [mPa·s]
303.15 K	2.685 ± 0.044
313.15 K	2.075 ± 0.034

CCCCC(CC)COP(=O)(O)OCC(CC)CCCC (stereo unspecified) + O=[N+]([O-])c1ccccc1
Details	viscosity [mPa·s]
303.15 K, 100 kPa, x1 = 0.9387	17.75 ± 0.76

Cc1cccc(O)c1 + c1ccncc1
viscosity [mPa·s], 101 kPa
Details	x1 = 0.1071	x1 = 0.2168	x1 = 0.3407	x1 = 0.3927	x1 = 0.4754	x1 = 0.542	x1 = 0.6374	x1 = 0.6973	x1 = 0.8077	x1 = 0.8862
293.15 K	1.228 ± 0.012	1.77 ± 0.017	2.54 ± 0.025	3.085 ± 0.031	4.25 ± 0.05	5.585 ± 0.062	8.16 ± 0.1	9.98 ± 0.13	13.08 ± 0.19	14.81 ± 0.23
303.15 K	1.098 ± 0.011	1.461 ± 0.014	2.125 ± 0.021	2.51 ± 0.03	3.35 ± 0.03	4.175 ± 0.044	5.57 ± 0.06	6.52 ± 0.08	7.885 ± 0.1	8.64 ± 0.12
313.15 K	0.931 ± 0.009	1.24 ± 0.012	1.732 ± 0.017	2.022 ± 0.02	2.605 ± 0.025	3.15 ± 0.031	3.995 ± 0.04	4.565 ± 0.046	5.255 ± 0.055	5.59 ± 0.059
